# Laboratory results taken from the supplement of paper PMC10307832.
# Tests used:
# Test in all cases: relative viability (nuclei count vs DMSO), 5 days (fraction); higher = more cells survive
# 201T = system: 201T
# Procedure, shortened: (§1)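 Lung cancer cell lines were seeded in 1536-well plates and dosed by pin tool the next day, with either a single drug or a fixed anchor-drug dose combined with five library-drug doses (not always all listed) spaced in √10 steps. Five days later, one step fixed the cells and stained their nuclei (final 0.05% Triton X-100, 1% formaldehyde, 1 ug/ml Hoechst), and nuclei were counted on 4× images. Relative viability is the nuclei count in treated wells divided by the count in vehicle wells, and each value is the median of duplicate plates.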
# A-427 = system: A-427
# Procedure, shortened: as §1
# COR-L23 = system: COR-L23
# Procedure, shortened: as §1
# HARA = system: HARA
# Procedure, shortened: as §1
# HCC-78 = system: HCC-78
# Procedure, shortened: as §1
# LCLC-103H = system: LCLC-103H
# Procedure, shortened: as §1
# LCLC-97TM1 = system: LCLC-97TM1
# Procedure, shortened: as §1
# LK-2 = system: LK-2
# Procedure, shortened: as §1
# LOU-NH91 = system: LOU-NH91
# Procedure, shortened: as §1
# LXF-289 = system: LXF-289
# Procedure, shortened: as §1
# NCI-H1650 = system: NCI-H1650
# Procedure, shortened: as §1
# NCI-H1651 = system: NCI-H1651
# Procedure, shortened: as §1
# NCI-H1793 = system: NCI-H1793
# Procedure, shortened: as §1
# NCI-H2347 = system: NCI-H2347
# Procedure, shortened: as §1
# NCI-H23 = system: NCI-H23
# Procedure, shortened: as §1
# NCI-H2405 = system: NCI-H2405
# Procedure, shortened: as §1
# NCI-H520 = system: NCI-H520
# Procedure, shortened: as §1
# NCI-H522 = system: NCI-H522
# Procedure, shortened: as §1
# NCI-H647 = system: NCI-H647
# Procedure, shortened: as §1
# NCI-H838 = system: NCI-H838
# Procedure, shortened: as §1
# PC-3 [JPC-3] = system: PC-3 [JPC-3]
# Procedure, shortened: as §1
# RERF-LC-KJ = system: RERF-LC-KJ
# Procedure, shortened: as §1
# UMC-11 = system: UMC-11
# Procedure, shortened: as §1
smiles,measurement,setting,value
Cc1csc(=NC2CCCCC2)n1/N=C/c1ccc(O)c(O)c1O [MIM1] + CC(=O)Nc1cccc(-n2c(=O)n(C3CC3)c(=O)c3c(Nc4ccc(I)cc4F)n(C)c(=O)c(C)c32)c1 [Trametinib] (partner 0.02 µM),relative viability,201T; first compound 0.2 µM,0.704
same,relative viability,201T; first compound 0.6325 µM,0.701
same,relative viability,201T; first compound 2 µM,0.736
same,relative viability,201T; first compound 6.325 µM,0.605
same,relative viability,201T; first compound 20 µM,0.761
same,relative viability,A-427; first compound 0.2 µM,0.758
same,relative viability,A-427; first compound 0.6325 µM,0.737
same,relative viability,A-427; first compound 2 µM,0.77
same,relative viability,A-427; first compound 6.325 µM,0.672
same,relative viability,A-427; first compound 20 µM,0.37
same,relative viability,COR-L23; first compound 0.2 µM,0.509
same,relative viability,COR-L23; first compound 0.6325 µM,0.619
same,relative viability,COR-L23; first compound 2 µM,0.571
same,relative viability,COR-L23; first compound 6.325 µM,0.388
same,relative viability,COR-L23; first compound 20 µM,0.306
same,relative viability,HARA; first compound 0.2 µM,0.707
same,relative viability,HARA; first compound 0.6325 µM,0.608
same,relative viability,HARA; first compound 2 µM,0.641
same,relative viability,HARA; first compound 6.325 µM,0.216
same,relative viability,HARA; first compound 20 µM,0.173
same,relative viability,HCC-78; first compound 0.2 µM,0.75
same,relative viability,HCC-78; first compound 2 µM,0.778
same,relative viability,HCC-78; first compound 6.325 µM,0.556
same,relative viability,HCC-78; first compound 20 µM,1.15
same,relative viability,LCLC-103H; first compound 0.2 µM,0.662
same,relative viability,LCLC-103H; first compound 0.6325 µM,0.687
same,relative viability,LCLC-103H; first compound 2 µM,0.694
same,relative viability,LCLC-103H; first compound 6.325 µM,0.669
same,relative viability,LCLC-103H; first compound 20 µM,0.394
same,relative viability,LCLC-97TM1; first compound 0.2 µM,0.207
same,relative viability,LCLC-97TM1; first compound 0.6325 µM,0.218
same,relative viability,LCLC-97TM1; first compound 2 µM,0.217
same,relative viability,LCLC-97TM1; first compound 6.325 µM,0.196
same,relative viability,LCLC-97TM1; first compound 20 µM,0.0682
same,relative viability,LK-2; first compound 0.2 µM,1.02
same,relative viability,LK-2; first compound 0.6325 µM,0.693
same,relative viability,LK-2; first compound 2 µM,0.625
same,relative viability,LK-2; first compound 6.325 µM,1.02
same,relative viability,LK-2; first compound 20 µM,0.236
same,relative viability,LOU-NH91; first compound 0.2 µM,0.795
same,relative viability,LOU-NH91; first compound 0.6325 µM,0.839
same,relative viability,LOU-NH91; first compound 2 µM,0.646
same,relative viability,LOU-NH91; first compound 6.325 µM,0.7
same,relative viability,LOU-NH91; first compound 20 µM,0.349
same,relative viability,LXF-289; first compound 0.2 µM,0.625
same,relative viability,LXF-289; first compound 0.6325 µM,0.664
same,relative viability,LXF-289; first compound 2 µM,0.705
same,relative viability,LXF-289; first compound 6.325 µM,0.607
same,relative viability,LXF-289; first compound 20 µM,0.221
same,relative viability,NCI-H1650; first compound 0.2 µM,0.697
same,relative viability,NCI-H1650; first compound 0.6325 µM,0.619
same,relative viability,NCI-H1650; first compound 2 µM,0.424
same,relative viability,NCI-H1650; first compound 6.325 µM,0.182
same,relative viability,NCI-H1650; first compound 20 µM,0.138
same,relative viability,NCI-H1651; first compound 0.2 µM,0.856
same,relative viability,NCI-H1651; first compound 0.6325 µM,0.9
same,relative viability,NCI-H1651; first compound 2 µM,0.866
same,relative viability,NCI-H1651; first compound 6.325 µM,0.728
same,relative viability,NCI-H1651; first compound 20 µM,0.843
same,relative viability,NCI-H1793; first compound 0.2 µM,0.397
same,relative viability,NCI-H1793; first compound 2 µM,0.409
same,relative viability,NCI-H1793; first compound 6.325 µM,0.411
same,relative viability,NCI-H1793; first compound 20 µM,0.408
same,relative viability,NCI-H2347; first compound 0.2 µM,0.309
same,relative viability,NCI-H2347; first compound 0.6325 µM,0.358
same,relative viability,NCI-H2347; first compound 2 µM,0.283
same,relative viability,NCI-H2347; first compound 6.325 µM,0.315
same,relative viability,NCI-H2347; first compound 20 µM,0.27
same,relative viability,NCI-H23; first compound 0.2 µM,0.407
same,relative viability,NCI-H23; first compound 0.6325 µM,0.342
same,relative viability,NCI-H23; first compound 2 µM,0.326
same,relative viability,NCI-H23; first compound 6.325 µM,0.312
same,relative viability,NCI-H23; first compound 20 µM,0.163
same,relative viability,NCI-H2405; first compound 0.2 µM,0.586
same,relative viability,NCI-H2405; first compound 0.6325 µM,0.75
same,relative viability,NCI-H2405; first compound 2 µM,0.656
same,relative viability,NCI-H2405; first compound 6.325 µM,0.603
same,relative viability,NCI-H2405; first compound 20 µM,0.685
same,relative viability,NCI-H520; first compound 0.2 µM,0.625
same,relative viability,NCI-H520; first compound 0.6325 µM,0.707
same,relative viability,NCI-H520; first compound 2 µM,0.652
same,relative viability,NCI-H520; first compound 6.325 µM,0.529
same,relative viability,NCI-H520; first compound 20 µM,0.289
same,relative viability,NCI-H522; first compound 0.2 µM,0.727
same,relative viability,NCI-H522; first compound 0.6325 µM,0.654
same,relative viability,NCI-H522; first compound 2 µM,0.834
same,relative viability,NCI-H522; first compound 6.325 µM,0.897
same,relative viability,NCI-H522; first compound 20 µM,0.675
same,relative viability,NCI-H647; first compound 0.2 µM,0.435
same,relative viability,NCI-H647; first compound 0.6325 µM,0.567
same,relative viability,NCI-H647; first compound 2 µM,0.415
same,relative viability,NCI-H647; first compound 6.325 µM,0.413
same,relative viability,NCI-H647; first compound 20 µM,0.18
same,relative viability,NCI-H838; first compound 0.2 µM,0.463
same,relative viability,NCI-H838; first compound 0.6325 µM,0.572
same,relative viability,NCI-H838; first compound 2 µM,0.544
same,relative viability,NCI-H838; first compound 6.325 µM,0.353
same,relative viability,NCI-H838; first compound 20 µM,0.178
same,relative viability,PC-3 [JPC-3]; first compound 0.2 µM,0.643
same,relative viability,PC-3 [JPC-3]; first compound 0.6325 µM,0.687
same,relative viability,PC-3 [JPC-3]; first compound 2 µM,0.655
same,relative viability,PC-3 [JPC-3]; first compound 6.325 µM,0.521
same,relative viability,PC-3 [JPC-3]; first compound 20 µM,0.558
same,relative viability,RERF-LC-KJ; first compound 0.2 µM,0.832
same,relative viability,RERF-LC-KJ; first compound 0.6325 µM,0.801
same,relative viability,RERF-LC-KJ; first compound 2 µM,0.666
same,relative viability,RERF-LC-KJ; first compound 6.325 µM,0.56
same,relative viability,RERF-LC-KJ; first compound 20 µM,0.3
same,relative viability,UMC-11; first compound 0.2 µM,0.724
same,relative viability,UMC-11; first compound 0.6325 µM,0.267
same,relative viability,UMC-11; first compound 2 µM,0.751
same,relative viability,UMC-11; first compound 6.325 µM,0.475
same,relative viability,UMC-11; first compound 20 µM,0.156
